Patent publication US12157746B2, “Tetrahydro-1H-pyrazino[2,1-a]isoindolylquinoline compounds for the treatment of autoimmune disease” (F. HOFFMANN-LA ROCHE AG, priority 2018, dated 2024)

Experiments:
[1] = target: T1, human TLR9 (Homo sapiens, UniProt Q9NR96); test: HEK293-Blue-hTLR-9 cells assay; type: cell-based; settings: HEK293-Blue-hTLR9 cells, ODN2006 stimulation, 20 hrs, SEAP reporter; read-out: HEK/hTLR9 IC50
T1 sequence (Q9NR96 26-1032): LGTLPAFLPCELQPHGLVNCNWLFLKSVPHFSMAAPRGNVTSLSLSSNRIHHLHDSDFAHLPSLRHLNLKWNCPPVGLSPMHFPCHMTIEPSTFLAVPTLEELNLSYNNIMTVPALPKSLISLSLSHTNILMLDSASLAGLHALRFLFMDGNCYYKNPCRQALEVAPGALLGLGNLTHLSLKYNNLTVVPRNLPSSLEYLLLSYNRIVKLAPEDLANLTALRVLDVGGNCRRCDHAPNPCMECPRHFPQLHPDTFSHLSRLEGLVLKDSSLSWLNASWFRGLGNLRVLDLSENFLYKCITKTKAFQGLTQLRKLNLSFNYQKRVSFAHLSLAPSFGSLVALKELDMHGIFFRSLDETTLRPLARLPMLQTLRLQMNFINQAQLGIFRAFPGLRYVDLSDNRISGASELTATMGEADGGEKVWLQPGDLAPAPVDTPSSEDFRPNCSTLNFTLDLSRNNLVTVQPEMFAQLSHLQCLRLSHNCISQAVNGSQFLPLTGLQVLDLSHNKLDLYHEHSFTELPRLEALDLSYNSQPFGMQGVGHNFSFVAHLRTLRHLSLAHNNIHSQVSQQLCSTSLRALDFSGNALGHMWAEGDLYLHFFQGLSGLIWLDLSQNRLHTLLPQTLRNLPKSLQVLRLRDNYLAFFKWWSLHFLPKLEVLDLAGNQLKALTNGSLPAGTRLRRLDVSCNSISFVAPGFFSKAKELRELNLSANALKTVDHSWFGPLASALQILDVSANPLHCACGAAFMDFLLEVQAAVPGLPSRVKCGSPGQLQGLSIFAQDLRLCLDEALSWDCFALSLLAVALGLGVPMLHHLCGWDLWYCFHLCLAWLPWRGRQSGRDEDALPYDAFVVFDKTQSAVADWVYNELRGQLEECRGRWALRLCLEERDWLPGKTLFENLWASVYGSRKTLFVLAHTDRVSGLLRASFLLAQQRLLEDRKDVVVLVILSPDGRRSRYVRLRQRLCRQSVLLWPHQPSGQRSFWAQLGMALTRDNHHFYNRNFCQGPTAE
In short: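 Antagonist mode in HEK293-Blue hTLR9 reporter cells (SEAP under NF-κB/AP-1 sites), stimulated with ODN2006 added from a 20 uM solution. Serially diluted compound (1% DMSO final) was incubated 20 hrs at 37° C. Supernatant SEAP was developed with QUANTI-Blue for 2 h at 37° C and read at 620˜655 nm.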

[2] = Human microsomal stability assay; type: in vitro ADME; settings: human liver microsomes 0.5 mg/mL, 37° C., pH 7.4, NADPH regenerating system, 0-30 minutes
Procedure: Human Microsomal Stability Assay
Human liver microsomes (Cat. NO.: 452117, Corning, USA) were preincubated with test compound for 10 minutes at 37° C. in 100 mM potassium phosphate buffer, pH 7.4. The reactions were initiated by adding NADPH regenerating system. The final incubation mixtures contained […] test compound, 0.5 mg/mL liver microsomal protein, 1 mM MgCl2, 1 mM NADP, 1 unit/mL isocitric dehydrogenase and 6 mM isocitric acid in 100 mM potassium phosphate buffer, pH 7.4. After incubation times of 0, 3, 6, 9, 15 and 30 minutes at 37° C., 300 μL of cold ACN (including internal standard) was added to 100 μL incubation mixture to terminate the reaction. Following precipitation and centrifugation, 100 μL supernatant will be taken out and added 300 uL water. The amount of compound remaining in the samples was determined by LC-MS/MS. Controls of no NADPH regenerating system at zero and 30 minutes were also prepared and analyzed. The results were categorized as: low (<7.0 mLJmin/kg), medium (7.0-16.2 mL/min/kg) and high (16.2-23.2 mLJmin/kg).

Compound	IC50 [1] [nM]	CL (h) [2] [mL/min/kg]
C[C@@H]1CN(c2ccc(C#N)c3ncccc23)C[C@@H]2c3ccc(NCCN(C)C)cc3CN12 [Example 26, 5-[(4R,10bS)-8-[2-(dimethylamino)ethylamino]-4-methyl-3,4,6,10b-tetrahydro-1H-pyrazino[2,1-a]isoindol-2-yl]quinoline-8-carbonitrile]	55.8	6.2
C[C@@H]1CN(c2ccc(C#N)c3ncccc23)C[C@@H]2c3ccc(NC4CNC4)cc3CN12 [Example 28, 5-[(4R,10S)-8-(azetidin-3-ylamino)-4-methyl-3,4,6,10b-tetrahydro-1H-pyrazino[2,1-a]isoindol-2-yl]quinoline-8-carbonitrile]	83.4	8.7
C[C@@H]1CN(c2ccc(C#N)c3ncccc23)C[C@@H]2c3ccc(N[C@H]4CNC[C@H]4F)cc3CN12 [Example 30, 5-[(4R,10bS)-8-[[(3S,4R)-4-fluoropyrrolidin-3-yl]amino]-4-methyl-3,4,6,10b-tetrahydro-1H-pyrazino[2,1-a]isoindol-2-yl]quinoline-8-carbonitrile]	96.6	8.8
C[C@@H]1CN(c2ccc(C#N)c3ncccc23)C[C@@H]2c3ccc(N[C@@H]4CNC[C@@H]4F)cc3CN12 [Example 32, 5-[(4R,10bS)-8-[[(3R,4S)-4-fluoropyrrolidin-3-yl]amino]-4-methyl-3,4,6,10b-tetrahydro-1H-pyrazino[2,1-a]isoindol-2-yl]quinoline-8-carbonitrile]	89.2	8.7
C[C@@H]1CN(c2ccc(C#N)c3ncccc23)C[C@@H]2c3ccc(N4CC5(CNC5)C4)cc3CN12 [Example 36, 5-[(4R,10bS)-8-(2,6-diazaspiro[3.3]heptan-2-yl)-4-methyl-3,4,6,10b-tetrahydro-1H-pyrazino[2,1-a]isoindol-2-yl]quinoline-8-carbonitrile]	100	6.2
C[C@@H]1CN(c2ccc(C#N)c3ncccc23)C[C@@H]2c3ccc(N4CC5(CCN5)C4)cc3CN12 [Example 37, 5-[(4R,10bS)-8-(1,6-diazaspiro[3.3]heptan-6-yl)-4-methyl-3,4,6,10b-tetrahydro-1H-pyrazino[2,1-a]isoindol-2-yl]quinoline-8-carbonitrile]	103	6.5
C[C@@H]1CN(c2ccc(C#N)c3ncccc23)C[C@@H]2c3ccc(N4CC5(CN(C)C5)C4)cc3CN12 [Example 38, 5-[(4R,10bS)-4-methyl-8-(6-methyl-2,6-diazaspiro[3.3]heptan-2-yl)-3,4,6,10b-tetrahydro-1H-pyrazino[2,1-a]isoindol-2-yl]quinoline-8-carbonitrile]	66.8	6.2
C[C@@H]1CN(c2ccc(C#N)c3ncccc23)C[C@@H]2c3ccc(N4CC(C)(N)C4)cc3CN12 [Example 39, 5-[(4R,10bS)-8-(3-amino-3-methyl-azetidin-1-yl)-4-methyl-3,4,6,10b-tetrahydro-1H-pyrazino[2,1-a]isoindol-2-yl]quinoline-8-carbonitrile]	123	6.2
C[C@@H]1CN(c2ccc(C#N)c3ncccc23)C[C@@H]2c3ccc(N4C[C@@H](N)[C@](C)(O)C4)cc3CN12 [Example 45, 5-[(4R,10bS)-4-methyl-8-[trans-(3R,4R)-4-amino-3-hydroxy-3-methyl-pyrrolidin-1-yl]-3,4,6,10b-tetrahydro-1H-pyrazino[2,1-a]isoindol-2-yl]quinoline-8-carbonitrile]	78.5	6.2
C[C@@H]1CN(c2ccc(C#N)c3ncccc23)C[C@@H]2c3ccc(N4C[C@@H](F)[C@@H](N)C4)cc3CN12 [Example 46, 5-[(4R,10bS)-8-[(3S,4R)-3-amino-4-fluoro-pyrrolidin-1-yl]-4-methyl-3,4,6,10b-tetrahydro-1H-pyrazino[2,1-a]isoindol-2-yl]quinoline-8-carbonitrile]	144	8.8
C[C@@H]1CN(c2ccc(C#N)c3ncccc23)C[C@@H]2c3ccc(N4C[C@@H](N)[C@H](F)C4)cc3CN12 [Example 48, 5-[(4R,10bS)-8-[(3R,4R)-3-amino-4-fluoro-pyrrolidin-1-yl]-4-methyl-3,4,6,10b-tetrahydro-1H-pyrazino[2,1-a]isoindol-2-yl]quinoline-8-carbonitrile]	193	8.9
C[C@@H]1CN(c2ccc(C#N)c3ncccc23)C[C@@H]2c3ccc(N4CCOC5CNCC54)cc3CN12 (stereo partly drawn) [Example 52, 5-[(4R,10bS)-8-(3,4a,5,6,7,7a-hexahydro-2H-pyrrolo[3,4-b][1,4]oxazin-4-yl)-4-methyl-3,4,6,10b-tetrahydro-1H-pyrazino[2,1-a]isoindol-2-yl]quinoline-8-carbonitrile]	195	8.1
C[C@@H]1CN(c2ccc(C#N)c3ncccc23)C[C@@H]2c3ccc(N4CCOCC(N)C4)cc3CN12 (stereo partly drawn) [Example 54, 5-[(4R,10bS)-8-(6-amino-1,4-oxazepan-4-yl)-4-methyl-3,4,6,10b-tetrahydro-1H-pyrazino[2,1-a]isoindol-2-yl]quinoline-8-carbonitrile]	63.6	8.9

Results, then the compound that gave them:

IC50 [1] [nM]	CL (h) [2] [mL/min/kg]	Compound
59.5	7.0	C[C@@H]1CN(c2ccc(C#N)c3ncccc23)C[C@@H]2c3ccc(N4C[C@H](N)[C@@H](O)C4)cc3CN12 [Example 40A, 5-[(4R,10bS)-8-[(3S,4S)-3-amino-4-hydroxy-pyrrolidin-1-yl]-4-methyl-3,4,6,10b-tetrahydro-1H-pyrazino[2,1-a]isoindol-2-yl]quinoline-8-carbonitrile]
78.3	6.2	C[C@@H]1CN(c2ccc(C#N)c3ncccc23)C[C@@H]2c3ccc(N4C[C@@H](N)[C@](C)(O)C4)cc3CN12 [Example 45A, 5-[(4R,10bS)-8-[(3R,4R)-4-amino-3-hydroxy-3-methyl-pyrrolidin-1-yl]-4-methyl-3,4,6,10b-tetrahydro-1H-pyrazino[2,1-a]isoindol-2-yl]quinoline-8-carbonitrile]
74.1	6.2	C[C@@H]1CN(c2ccc(C#N)c3ncccc23)C[C@@H]2c3ccc(N4C[C@H](N)[C@@](C)(O)C4)cc3CN12 [Example 45B, 5-[(4R,10bS)-8-[(3S,4S)-4-amino-3-hydroxy-3-methyl-pyrrolidin-1-yl]-4-methyl-3,4,6,10b-tetrahydro-1H-pyrazino[2,1-a]isoindol-2-yl]quinoline-8-carbonitrile]
56	8.6	C[C@@H]1CN(c2ccc(C#N)c3ncccc23)C[C@@H]2c3ccc(N4CCNC[C@H](O)C4)cc3CN12 [Example 53A, 5-[(4R,10bS)-8-[(6S)-6-hydroxy-1,4-diazepan-1-yl]-4-methyl-3,4,6,10b-tetrahydro-1H-pyrazino[2,1-a]isoindol-2-yl]quinoline-8-carbonitrile]
92.2	7.5	C[C@@H]1CN(c2ccc(C#N)c3ncccc23)C[C@@H]2c3ccc(N4CCOC[C@H](N)C4)cc3CN12 [Example 54A, 5-[(4R,10bS)-8-[(6R)-6-amino-1,4-oxazepan-4-yl]-4-methyl-3,4,6,10b-tetrahydro-1H-pyrazino[2,1-a]isoindol-2-yl]quinoline-8-carbonitrile]
